Test results taken from the supplement of paper PMC10307832.

Assays:
Experiment in all cases: relative viability (nuclei count vs DMSO), 5 days (fraction); higher = more cells survive
ABC-1 = test system: ABC-1
How it was run: (§1)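 The day after seeding in 1536-well plates, lung cancer cell lines were treated by pin tool with a single drug, or with a fixed anchor-drug dose together with five library-drug doses (not always all listed) in √10 steps. After 5 days, a combined fix-and-stain solution (final 0.05% Triton X-100, 1% formaldehyde, 1 ug/ml Hoechst) was added. Nuclei counted on 4× images gave relative viability as treated counts over vehicle counts, reported as the median of duplicate plates.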

EKVX = test system: EKVX
How it was run: as §1

NCI-H1623 = test system: NCI-H1623
How it was run: as §1

NCI-H2126 = test system: NCI-H2126
How it was run: as §1

NCI-H522 = test system: NCI-H522
How it was run: as §1

A549 = test system: A549
How it was run: as §1

Calu-6 = test system: Calu-6
How it was run: as §1

EBC-1 = test system: EBC-1
How it was run: as §1

IA-LM = test system: IA-LM
How it was run: as §1

NCI-H1299 = test system: NCI-H1299
How it was run: as §1

NCI-H1648 = test system: NCI-H1648
How it was run: as §1

NCI-H1703 = test system: NCI-H1703
How it was run: as §1

## NC(=O)Nc1cc(-c2cccc(F)c2)sc1C(=O)N[C@H]1CCCNC1 [AZD7762] + CCNC(=O)c1noc(-c2cc(C(C)C)c(O)cc2O)c1-c1ccc(CN2CCOCC2)cc1 [Luminespib] (partner 0.01 µM)
ABC-1; first compound 0.01 µM
  relative viability: 0.545
ABC-1; first compound 0.03162 µM
  relative viability: 0.787
ABC-1; first compound 0.1 µM
  relative viability: 0.361
ABC-1; first compound 0.3162 µM
  relative viability: 0.374
ABC-1; first compound 1 µM
  relative viability: 0.305
EKVX; first compound 0.01 µM
  relative viability: 0.827
EKVX; first compound 0.03162 µM
  relative viability: 0.88
EKVX; first compound 0.1 µM
  relative viability: 0.826
EKVX; first compound 0.3162 µM
  relative viability: 0.82
EKVX; first compound 1 µM
  relative viability: 0.65
NCI-H1623; first compound 0.01 µM
  relative viability: 0.421
NCI-H1623; first compound 0.03162 µM
  relative viability: 0.591
NCI-H1623; first compound 0.1 µM
  relative viability: 0.602
NCI-H1623; first compound 0.3162 µM
  relative viability: 0.604
NCI-H1623; first compound 1 µM
  relative viability: 0.418
NCI-H2126; first compound 0.01 µM
  relative viability: 0.922
NCI-H2126; first compound 0.03162 µM
  relative viability: 0.914
NCI-H2126; first compound 0.1 µM
  relative viability: 0.833
NCI-H2126; first compound 0.3162 µM
  relative viability: 0.802
NCI-H2126; first compound 1 µM
  relative viability: 0.456
NCI-H522; first compound 0.01 µM
  relative viability: 1.14
NCI-H522; first compound 0.03162 µM
  relative viability: 1.23
NCI-H522; first compound 0.1 µM
  relative viability: 1.14
NCI-H522; first compound 0.3162 µM
  relative viability: 1.35
NCI-H522; first compound 1 µM
  relative viability: 1

## NC(=O)Nc1cc(-c2cccc(F)c2)sc1C(=O)N[C@H]1CCCNC1 [AZD7762] + Cc1nc(Nc2ncc(C(=O)Nc3c(C)cccc3Cl)s2)cc(N2CCN(CCO)CC2)n1 [Dasatinib] (partner 0.075 µM)
ABC-1; first compound 0.01 µM
  relative viability: 0.618
ABC-1; first compound 0.03162 µM
  relative viability: 0.586
ABC-1; first compound 0.1 µM
  relative viability: 0.473
ABC-1; first compound 0.3162 µM
  relative viability: 0.413
ABC-1; first compound 1 µM
  relative viability: 0.273
EKVX; first compound 0.01 µM
  relative viability: 0.623
EKVX; first compound 0.03162 µM
  relative viability: 0.615
EKVX; first compound 0.1 µM
  relative viability: 0.337
EKVX; first compound 0.3162 µM
  relative viability: 0.543
EKVX; first compound 1 µM
  relative viability: 0.521
NCI-H1623; first compound 0.01 µM
  relative viability: 0.471
NCI-H1623; first compound 0.03162 µM
  relative viability: 0.558
NCI-H1623; first compound 0.1 µM
  relative viability: 0.615
NCI-H1623; first compound 0.3162 µM
  relative viability: 0.482
NCI-H1623; first compound 1 µM
  relative viability: 0.482
NCI-H2126; first compound 0.01 µM
  relative viability: 0.658
NCI-H2126; first compound 0.03162 µM
  relative viability: 0.665
NCI-H2126; first compound 0.1 µM
  relative viability: 0.639
NCI-H2126; first compound 0.3162 µM
  relative viability: 0.648
NCI-H2126; first compound 1 µM
  relative viability: 0.402
NCI-H522; first compound 0.01 µM
  relative viability: 0.923
NCI-H522; first compound 0.03162 µM
  relative viability: 0.919
NCI-H522; first compound 0.1 µM
  relative viability: 0.76
NCI-H522; first compound 0.3162 µM
  relative viability: 0.933
NCI-H522; first compound 1 µM
  relative viability: 0.946

## NC(=O)Nc1cc(-c2cccc(F)c2)sc1C(=O)N[C@H]1CCCNC1 [AZD7762] + O=C(c1cc(Cc2n[nH]c(=O)c3ccccc23)ccc1F)N1CCN(C(=O)C2CC2)CC1 [Olaparib] (partner 8 µM)
A549; first compound 0.01 µM
  relative viability: 0.37
A549; first compound 0.03162 µM
  relative viability: 0.387
A549; first compound 0.1 µM
  relative viability: 0.381
A549; first compound 0.3162 µM
  relative viability: 0.481
A549; first compound 1 µM
  relative viability: 0.155
ABC-1; first compound 0.01 µM
  relative viability: 0.968
ABC-1; first compound 0.03162 µM
  relative viability: 0.857
ABC-1; first compound 0.1 µM
  relative viability: 0.893
ABC-1; first compound 0.3162 µM
  relative viability: 0.938
ABC-1; first compound 1 µM
  relative viability: 0.685
Calu-6; first compound 0.01 µM
  relative viability: 0.636
Calu-6; first compound 0.03162 µM
  relative viability: 0.47
Calu-6; first compound 0.1 µM
  relative viability: 0.375
Calu-6; first compound 0.3162 µM
  relative viability: 0.166
Calu-6; first compound 1 µM
  relative viability: 0.109
EBC-1; first compound 0.01 µM
  relative viability: 0.848
EBC-1; first compound 0.03162 µM
  relative viability: 0.915
EBC-1; first compound 0.1 µM
  relative viability: 0.872
EBC-1; first compound 0.3162 µM
  relative viability: 0.717
EBC-1; first compound 1 µM
  relative viability: 0.451
EKVX; first compound 0.01 µM
  relative viability: 0.82
EKVX; first compound 0.03162 µM
  relative viability: 1.04
EKVX; first compound 0.1 µM
  relative viability: 0.62
EKVX; first compound 0.3162 µM
  relative viability: 0.844
EKVX; first compound 1 µM
  relative viability: 0.393
IA-LM; first compound 0.01 µM
  relative viability: 1.07
IA-LM; first compound 0.03162 µM
  relative viability: 0.796
IA-LM; first compound 0.1 µM
  relative viability: 0.891
IA-LM; first compound 0.3162 µM
  relative viability: 0.655
IA-LM; first compound 1 µM
  relative viability: 0.171
NCI-H1299; first compound 0.01 µM
  relative viability: 1.02
NCI-H1299; first compound 0.03162 µM
  relative viability: 1
NCI-H1299; first compound 0.1 µM
  relative viability: 0.954
NCI-H1299; first compound 0.3162 µM
  relative viability: 0.688
NCI-H1299; first compound 1 µM
  relative viability: 0.312
NCI-H1648; first compound 0.01 µM
  relative viability: 0.639
NCI-H1648; first compound 0.03162 µM
  relative viability: 0.994
NCI-H1648; first compound 0.1 µM
  relative viability: 0.751
NCI-H1648; first compound 0.3162 µM
  relative viability: 0.934
NCI-H1648; first compound 1 µM
  relative viability: 0.61
NCI-H1703; first compound 0.01 µM
  relative viability: 0.305
NCI-H1703; first compound 0.03162 µM
  relative viability: 0.214
NCI-H1703; first compound 0.1 µM
  relative viability: 0.206
NCI-H1703; first compound 0.3162 µM
  relative viability: 0.168
NCI-H1703; first compound 1 µM
  relative viability: 0.12
NCI-H2126; first compound 0.01 µM
  relative viability: 0.948
NCI-H2126; first compound 0.03162 µM
  relative viability: 0.982
NCI-H2126; first compound 0.1 µM
  relative viability: 0.966
NCI-H2126; first compound 0.3162 µM
  relative viability: 0.941
NCI-H2126; first compound 1 µM
  relative viability: 0.885
NCI-H522; first compound 0.01 µM
  relative viability: 0.711
NCI-H522; first compound 0.03162 µM
  relative viability: 0.631
NCI-H522; first compound 0.1 µM
  relative viability: 0.676
NCI-H522; first compound 0.3162 µM
  relative viability: 0.59
NCI-H522; first compound 1 µM
  relative viability: 0.632
